Laboratory results reported in patent US11628216B2 (priority 2013, dated 2023).
Where two headings read alike, the source gives them in different places.

How the values were obtained:
[1] = test system: antibodies of Example 3 (antibody of the invention against 6-acetylmorphine); format: binding; conditions: 6-AM Conc. 10 ng/mL
Description: Cross reactivity to heroin metabolites and other common structurally related opiates may be evaluated using the antibodies described herein. Immunoassays are constructed using the antibodies of Example 3, configured to operate in a competitive mode immunoassay format, in which the analogue compounds of the invention are compared with other related compounds for cross reaction against 6-acetylmorphine. […] Aliquots of labeled 6-acetylmorphine at 10 ng/mL are incubated in the presence of competing compound with the antibody of the invention, and the level of interaction of the competitor compound determined as a reduction in measured signal compared with the situation where only 6-acetylmorphine is present.
Cross reactivity to heroin metabolites and other common structurally related opiates were evaluated using the antibodies as described with reference to Example 3. […] Aliquots of labeled 6-acetylmorphine at 10 ng/mL were incubated in the presence of competing compound with the antibody of the invention, and the level of interaction of the competitor compound determined as a reduction in measured signal compared with the situation where only 6-acetylmorphine was present.

[2] = after last heroin use; cited from earlier work
[3] = test system: selected monoclonal antibody against 6-AM; assay: competitive assay for 6-AM developed with a selected antibody; format: binding; conditions: at clinically relevant concentrations
Description: (§1) The bacterial cells from each antibody library are streaked on agar to generate colonies. The colonies, coding for monoclonal antibodies, are used to inoculate culture medium in individual wells in 96-well plates. The liquid cultures are grown overnight and used to generate frozen cell stocks. The frozen cell stocks are used to generate duplicate 96-well plate cultures, followed by expression and purification of the monoclonal antibodies in soluble form in microgram quantities.
as §1, with “were” for “are”

Structure (SMILES)	crossreactivity [3]	also measured
CC(=O)O[C@H]1C=CC2[C@H]3Cc4ccc(O)c5c4[C@@]2(CCN3C)[C@H]1O5 (stereo partly drawn) [6-Acetylmorphine]	–	Cross-Reactivity (%) ([1]; Analyte Conc. 10 ng/mL): 100%; time 6-AM remains in the urine [2]: no more than 24 hours
CC(=O)Oc1ccc2c3c1O[C@H]1[C@@H](OC(C)=O)C=C[C@H]4[C@@H](C2)N(C)CC[C@@]341 [Heroin, Diacetylmorphine]	–	Cross-Reactivity (%) ([1]; Analyte Conc. 750 ng/mL): 1.3%
CN1CC[C@]23c4c5ccc(O[C@@H]6O[C@H](C(=O)O)[C@@H](O)[C@H](O)[C@H]6O)c4O[C@H]2[C@@H](O)C=C[C@H]3[C@H]1C5 [Morphine 3-D-glucuronide]	no crossreactivity	–
CN1CC[C@]23c4c5ccc(O)c4O[C@H]2[C@@H](O[C@@H]2O[C@H](C(=O)O)[C@@H](O)[C@H](O)[C@H]2O)C=C[C@H]3[C@H]1C5 [Morphine 6-D-glucuronide]	no crossreactivity	–
CN1CC[C@]23c4c5ccc(O)c4O[C@H]2[C@@H](O)C=C[C@H]3[C@H]1C5 [Morphine]	no crossreactivity	–
